Assay: Hygroscopicity: increase of water content on storage at 25° C. under relative humidity of 60%
Assay type: physicochemical
Settings: six months
Method: Thus, for example, water content of crystalline form H1 produced according to the present invention is increased by 0.2% in six months at the temperature of 25° C. under relative humidity of 60%. Crystalline form H1 obtained according to the present invention typically has the water content of 2.5-8% by weight of the product obtained, more preferably 3-7% by weight, still more preferably 4-6% by weight as determined by Karl fisher method.

Compound: O=C1Nc2ccc(Cl)cc2[C@@](C#CC2CC2)(C(F)(F)F)O1 [crystalline form H1 disclosed in WO 2006/018853] [(4S)-6-chloro-4-(cyclopropylethynyl)-1,4-dihydro-4-(trifluoromethyl)-2H-3,1-benzoxazin-2-one]
- increase of water content on storage: 2.37%

Compound: O=C1Nc2ccc(Cl)cc2[C@@](C#CC2CC2)(C(F)(F)F)O1 [crystalline form H1 produced according to the present invent] [(4S)-6-chloro-4-(cyclopropylethynyl)-1,4-dihydro-4-(trifluoromethyl)-2H-3,1-benzoxazin-2-one]
- increase of water content on storage: 0.2%

Source: patent US20120232069A1, “PROCESS FOR PREPARING EFAVIRENZ POLYMORPH” (HETERO RESEARCH FOUNDATION, priority 2008, published 2012)
